Usually melting point stands for the temperature, or range, at which the solid turns liquid.

Molecules are shown by their SMILES. Where only a bound is given, the exact number is not on record here.

This is an account of results in patent US6872729B2, “Pyrimidinylbenzimidazole and triazinylbenzimidazole derivatives and agricultural/horticultural fungicides” (Kumiai Chemical Industry Co., Ltd., priority 1998, dated 2005).

One data set has as its system Erysiphe graminis. The experiment in a line: Test for preventive effect on wheat powdery mildew. The class given is in vivo. To be noted: wheat (Norin-61-go) seedlings, 500 ppm active ingredient, preventive treatment; diseased area of first leaves 10 days after inoculation with Erysiphe graminis. The method in brief:
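Wheat seedlings (Norin-61-go), grown 8 days, were sprayed with wettable-powder solutions at 500 ppm active ingredient, air-dried, then inoculated by sprinkling Erysiphe graminis spores. Plants were kept at 20-25° C. Diseased area on first leaves was scored 10 days post-inoculation against a rating standard.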

Take `COc1nc(OC)nc(-n2c(C(F)(F)F)nc3cc(C)ccc32)n1` [Compound I-312, 1-(4,6-dimethoxy-[1,3,5]triazin-2-yl)-5-methyl-2-trifluoromethylbenzimidazole]: the melting point was in the range of 137 to 140 °C. In addition, the Biological effectiveness entry with Erysiphe graminis was “A (No diseased area)”.
Compound `COc1ccnc(-n2cnc3ccccc32)n1` [Compound I-667, 1-(4-methoxypyrimidin-2-yl)-benzimidazole] returned a melting point of 114 to 116 °C. For the same compound, in the data set on Erysiphe graminis, the Biological effectiveness result is reported as “B (Diseased area of less than 25%)”.
`COc1cc(OC)nc(-n2c(Cl)nc3cc(C)ccc32)n1` [Compound I-258, 2-chloro-1-(4,6-dimethoxypyrimidin-2-yl)-5-methylbenzimidazole] gave a melting point of 145 to 148 °C. For the same compound, in the data set on Erysiphe graminis, the Biological effectiveness entry is “A (No diseased area)”.
`COc1cc(OC)nc(-n2c(SC)nc3ccccc32)n1` [Compound I-4, 1-(4,6-dimethoxypyrimidin-2-yl)-2-methylthiobenzimidazole] came in with a melting point of 135 to 137 °C.
As to `COc1cc(OC)nc(-n2c(C)nc3cc(C)ccc32)n1` [Compound I-186, 1-(4,6-dimethoxypyrimidin-2-yl)-2,5-dimethylbenzimidazole], the melting point lay in the range of 163 to 166 °C. In addition, in the data set on Erysiphe graminis, the Biological effectiveness result is recorded as “A (No diseased area)”.
The compound `COc1nc(OC)nc(-n2c(C)nc3cc(Cl)ccc32)n1` [Compound I-215, 5-chloro-1-(4,6-dimethoxy-[1,3,5]triazin-2-yl)-2-methylbenzimidazole] showed a melting point of 173 to 176 °C. For the same compound, the Biological effectiveness entry with Erysiphe graminis is listed as “A (No diseased area)”.
Take `COc1cc(OC)nc(-n2c(C(F)(F)F)nc3cc(C)ccc32)n1` [Compound I-298, 1-(4,6-dimethoxypyrimidin-2-yl)-5-methyl-2-trifluoromethylbenzimidazole]: the melting point is 93 to 96 °C. Also, in the data set on Erysiphe graminis, the Biological effectiveness entry is recorded as “A (No diseased area)”.
Turning to `COc1cc(OC)nc(-n2c(N)nc3cc(C)ccc32)n1` [Compound I-362, 2-amino-1-(4,6-dimethoxypyrimidin-2-yl)-5-methylbenzimidazole], the melting point was over 300 °C. Moreover, in the data set on Erysiphe graminis, the Biological effectiveness entry is on record as “A (No diseased area)”.
`COc1nc(OC)nc(-n2c(N)nc3cc(Cl)ccc32)n1` [Compound I-368, 2-amino-5-chloro-1-(4,6-dimethoxy-[1,3,5]triazin-2-yl)benzimidazole] showed a melting point of 293 to 296 °C. In the data set with Erysiphe graminis, the Biological effectiveness result is listed as “B (Diseased area of less than 25%)”.
`COc1nc(OC)nc(-n2c(Cl)nc3cc(Cl)ccc32)n1` [Compound I-277, 2,5-dichloro-1-(4,6-dimethoxy-[1,3,5]triazin-2-yl)benzimidazole] came in with a melting point of 146 to 149 °C. Further, the Biological effectiveness entry with Erysiphe graminis was “B (Diseased area of less than 25%)”.
The compound `COc1cc(OC)nc(-n2c(OC)nc3ccccc32)n1` [Compound I-18, 1-(4,6-dimethoxypyrimidin-2-yl)-2-methoxybenzimidazole] came in with a melting point of 121 to 122 °C.
Consider `COc1cc(OC)nc(-n2c(S(C)(=O)=O)nc3ccccc32)n1` [Compound I-5, 1-(4,6-dimethoxypyrimidin-2-yl)-2-methylsulfonylbenzimidazole], for which the melting point is 114 to 117 °C.
